Assay results published in the OligoGym collection.
Where “and” joins values, the source holds several entries; their conditions need not be identical. Identical values can stand only once. After the bases stand the sugars from the 5' end (letter, count) and the backbone: PS all phosphorothioate, else s phosphorothioate and o phosphodiester by linkage. Methylation of C is not given here. e = 2'-O-(2-methoxyethyl) (MOE); k = constrained ethyl (cEt); d = 2'-deoxy (DNA)

Target: SOD1
Conditions: ASO

## AACTCGCTAGGCCACGCCGA (sugars e5 d10 e5, PS)
HepG2, 4 µM
  target mRNA inhibition: 44%

## AAGTCACACAATTACAC (sugars e2 k2 d9 k2 e2, PS)
HepG2, 5 µM
  target mRNA inhibition: 37%

## AAGTCATCTGCTTTTTC (sugars e3 k2 d7 k2 e3, PS)
HepG2, 3 µM
  target mRNA inhibition: 83%

## AAGTCTGGCAAAATACA (sugars e3 k2 d7 k2 e3, PS)
HepG2, 3 µM
  target mRNA inhibition: 10%

## AAGTGAGGACCTGCACT (sugars e3 k2 d7 k2 e3, PS)
HepG2, 3 µM
  target mRNA inhibition: 16%

## AATACAGGTCATTGAAA (sugars e3 k2 d7 k2 e3, PS)
HepG2, 3 µM
  target mRNA inhibition: 6%

## AATCAGTTTCTCACTAC (sugars e2 k2 d9 k2 e2, PS)
HepG2, 5 µM
  target mRNA inhibition: 53%

## AATCTTCCAAGTGATCA (sugars e2 k2 d9 k2 e2, PS)
HepG2, 5 µM
  target mRNA inhibition: 38%

## AATGGTCTCCTGAGAGTGAG (sugars e5 d10 e5, PS)
HepG2, 5 µM
  target mRNA inhibition: 22%

## AATTACACCACAAGCCA (sugars e2 k2 d8 k2 e3, PS)
HepG2, 4 µM
  target mRNA inhibition: 62%

## AATTACACCACAAGCCA (sugars e3 k2 d7 k2 e3, PS)
HepG2, 3 µM
  target mRNA inhibition: 21%

## AATTTGGATTCTTTTAATAG (sugars e5 d10 e5, PS)
HepG2, 5 µM
  target mRNA inhibition: 14%

## ACAAGTTTAATACCCAT (sugars e2 k2 d9 k2 e2, PS)
HepG2, 5 µM
  target mRNA inhibition: 61%

## ACAAGTTTAATACCCAT (sugars e3 k2 d7 k2 e3, PS)
HepG2, 3 µM
  target mRNA inhibition: 23%

## ACACCACAAGCCAAACGACT (sugars e5 d10 e5, PS)
HepG2, 5 µM
  target mRNA inhibition: 49%

## ACAGGGTTTTTATTCAC (sugars e2 k2 d8 k2 e3, PS)
HepG2, 5 µM
  target mRNA inhibition: 29%

## ACAGGTCATTGAAACAG (sugars e3 k2 d7 k2 e3, PS)
HepG2, 3 µM
  target mRNA inhibition: 14%

## ACAGTGTTTAATGTTTA (sugars e3 k2 d7 k2 e3, PS)
HepG2, 0.1875 µM
  target mRNA inhibition: 35%
HepG2, 0.75 µM
  target mRNA inhibition: 71%
HepG2, 3 µM
  target mRNA inhibition: 56% and 79%
HepG2, 12 µM
  target mRNA inhibition: 82%

## ACAGTGTTTAATGTTTAT (sugars e5 d8 e5, linkages s1 o3 s9 o2 s2)
A431, 0.12 µM
  target mRNA inhibition: 0%
A431, 0.6 µM
  target mRNA inhibition: 18%
A431, 3 µM
  target mRNA inhibition: 26%
A431, 15 µM
  target mRNA inhibition: 45%
HepG2, 0.222 µM
  target mRNA inhibition: 19%
HepG2, 0.667 µM
  target mRNA inhibition: 30%
HepG2, 2 µM
  target mRNA inhibition: 46% and 50%
HepG2, 6 µM
  target mRNA inhibition: 70%

## ACATGCCTCTCTTCATC (sugars e3 k2 d7 k2 e3, PS)
HepG2, 3 µM
  target mRNA inhibition: 0%

## ACCTGCACTGGTACAGCCTG (sugars e5 d10 e5, PS)
HepG2, 5 µM
  target mRNA inhibition: 46% and 48%

## ACGACGCAAACCAGCACCCC (sugars e5 d10 e5, PS)
HepG2, 4 µM
  target mRNA inhibition: 30%

## ACTACATCCAAGGGAAT (sugars e2 k2 d9 k2 e2, PS)
HepG2, 4 µM
  target mRNA inhibition: 48%

## ACTACATCCAAGGGAAT (sugars e3 k2 d7 k2 e3, PS)
HepG2, 3 µM
  target mRNA inhibition: 7%

## ACTTTTAAGATTACAGTGTT (sugars e5 d10 e5, PS)
HepG2, 5 µM
  target mRNA inhibition: 24%

## AGACTACATCCAAGGGA (sugars e2 k2 d8 k2 e3, PS)
HepG2, 4 µM
  target mRNA inhibition: 53%

## AGACTACATCCAAGGGA (sugars e2 k2 d9 k2 e2, PS)
HepG2, 4 µM
  target mRNA inhibition: 55%

## AGCACCCCGTCTCCGCGACT (sugars e5 d10 e5, PS)
HepG2, 4 µM
  target mRNA inhibition: 24%

## AGCAGGATAACAGATGAGTT (sugars e5 d10 e5, PS)
HepG2, 4 µM
  target mRNA inhibition: 70%
HepG2, 12 µM
  target mRNA inhibition: 89%

## AGCCTCATAATAAGTGC (sugars e2 k2 d8 k2 e3, PS)
HepG2, 5 µM
  target mRNA inhibition: 16%

## AGCCTCATAATAAGTGC (sugars e2 k2 d9 k2 e2, PS)
HepG2, 5 µM
  target mRNA inhibition: 11%

## AGCCTCATAATAAGTGCCAT (sugars e5 d10 e5, PS)
HepG2, 5 µM
  target mRNA inhibition: 6%

## AGGATAACAGATGAGTT (sugars e2 k2 d8 k2 e3, PS)
HepG2, 0.1875 µM
  target mRNA inhibition: 30%
HepG2, 0.75 µM
  target mRNA inhibition: 71%
HepG2, 3 µM
  target mRNA inhibition: 87%
HepG2, 4 µM
  target mRNA inhibition: 84%
HepG2, 12 µM
  target mRNA inhibition: 95%

## AGGCTTGAATGACAAAGAAA (sugars e5 d10 e5, PS)
HepG2, 5 µM
  target mRNA inhibition: 27%

## AGGGTTTTTATTCACAG (sugars e3 k2 d7 k2 e3, PS)
HepG2, 3 µM
  target mRNA inhibition: 24%

## AGGTCATTGAAACAGAC (sugars e2 k2 d9 k2 e2, PS)
HepG2, 5 µM
  target mRNA inhibition: 44%

## AGTGAGATCACAGAATCTTC (sugars e5 d10 e5, PS)
HepG2, 5 µM
  target mRNA inhibition: 30%

## AGTGATCATAAATCAGT (sugars e2 k2 d9 k2 e2, PS)
HepG2, 5 µM
  target mRNA inhibition: 32%

## AGTGTTTAATGTTTAT (sugars ekddddddddekekee, linkages s1 o1 s8 o3 s2)
A431, 0.12 µM
  target mRNA inhibition: 10%
A431, 0.6 µM
  target mRNA inhibition: 22%
A431, 3 µM
  target mRNA inhibition: 48%
A431, 15 µM
  target mRNA inhibition: 77%

## AGTGTTTAATGTTTATC (sugars e2 k2 d8 e5, linkages s1 o2 s9 o2 s2)
A431, 0.062 µM
  target mRNA inhibition: 16%
A431, 0.185 µM
  target mRNA inhibition: 43%
A431, 0.556 µM
  target mRNA inhibition: 65%
A431, 1.667 µM
  target mRNA inhibition: 68%
A431, 5 µM
  target mRNA inhibition: 79%
A431, 15 µM
  target mRNA inhibition: 83%
SH-SY5Y, 0.062 µM
  target mRNA inhibition: 33%
SH-SY5Y, 0.185 µM
  target mRNA inhibition: 10%
SH-SY5Y, 0.556 µM
  target mRNA inhibition: 43%
SH-SY5Y, 1.667 µM
  target mRNA inhibition: 61%
SH-SY5Y, 5 µM
  target mRNA inhibition: 81%
SH-SY5Y, 15 µM
  target mRNA inhibition: 77%

## AGTGTTTAATGTTTATC (sugars e2 k2 d8 k2 e3, linkages s1 o2 s9 o2 s2)
A431, 0.12 µM
  target mRNA inhibition: 31%
A431, 0.6 µM
  target mRNA inhibition: 68%
A431, 3 µM
  target mRNA inhibition: 83%
A431, 15 µM
  target mRNA inhibition: 86%
HepG2, 0.222 µM
  target mRNA inhibition: 68%
HepG2, 0.667 µM
  target mRNA inhibition: 76%
HepG2, 2 µM
  target mRNA inhibition: 86%
HepG2, 6 µM
  target mRNA inhibition: 84%
